The values below are quoted from earlier work in patent publication US20100323985A1, “PHARMACEUTICAL OR COSMETIC PREPARATIONS FOR TOPICAL AND/OR PARENTERAL APPLICATION, PREPARATION METHODS THEREOF AND USE OF SAME” (priority 2007, published 2010).

The conditions of data set [1]: humans.
For data set [2] the following is noted: in vivo.

Turning to hyaluronic acid, the “excretion in the urine” value in data set [1] is on record as “less than 1 % of total clearance”. Besides, in data set [2], the immunogenicity entry is “no immunogenicity” and the tolerance result was “very good”.
